Results taken from the supplement of paper PMC9013687.

Legend:
Danio rerio embryo [1] = assay: EC50 Eye-jaw distance_Decrease; conditions: exposure time: 4 dpf
Procedure: (§1)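 Zebrafish embryos (UFZ-OBI strain) were exposed from 2 hpf for 48 h (2 dpf) or 96 h (4 dpf) at 28 °C; spontaneous tail coiling was scored at 25 hpf. Morphological features from automated image analysis (FishInspector), heart rate and locomotor response were fitted with drc models. Quantal endpoints were dichotomised at 2.5 SD from controls and fitted with a log-logistic model; heart rate, pigmentation and STC were normalised to the replicate control mean. Betamethasone was tested as betamethasone dipropionate, diflorasone as diflorasone diacetate.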

Danio rerio embryo [2] = assay: EC10 Pericard size_Increase; higher = less potent
Procedure: as §1

Danio rerio embryo [3] = assay: EC20 STC bell shape; higher = less potent; conditions: exposure time: 25 h
Procedure: as §1

Danio rerio embryo [4] = assay: EC10 Eye-jaw distance_Decrease; higher = less potent; conditions: exposure time: 4 dpf
Procedure: as §1

Danio rerio embryo [5] = assay: EC10 Pigmentation decrease; higher = less potent; conditions: exposure time: 2 dpf
Procedure: as §1

Danio rerio embryo [6] = assay: EC50 Otolith-eye distance_Decrease; conditions: exposure time: 4 dpf
Procedure: as §1

Danio rerio embryo [7] = assay: EC10 Body length_Decrease; higher = less potent
Procedure: as §1

Danio rerio embryo [8] = assay: EC50 Curvature_Increase; conditions: exposure time: 2 dpf
Procedure: as §1

Danio rerio embryo [9] = assay: EC10 LMR ligth decrease; higher = less potent; conditions: exposure time: 4 dpf
Procedure: as §1

Danio rerio embryo [10] = assay: spontaneous tail coiling frequency (coils/min/embryo); higher = more spontaneous movement; conditions: 25 hpf
Procedure: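 Spontaneous tail coilings of zebrafish embryos exposed from 2 hpf were recorded at 24-25 hpf in 1-min videos and detected by a KNIME workflow from grey-value variance. Betamethasone was tested as the dipropionate, diflorasone as the diacetate.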

Danio rerio embryo [11] = assay: EC10 Curvature_Increase; higher = less potent; conditions: exposure time: 2 dpf
Procedure: as §1

Danio rerio embryo [12] = assay: EC20 Any effect; higher = less potent
Procedure: as §1

Danio rerio embryo [13] = assay: EC50 Body length_Decrease
Procedure: as §1

Danio rerio embryo [14] = system: Danio rerio embryo
Procedure: as §1

Danio rerio embryo [15] = assay: EC20 Curvature_Increase; higher = less potent; conditions: exposure time: 2 dpf
Procedure: as §1

Danio rerio embryo [16] = assay: EC20 Otolith-eye distance_Decrease; higher = less potent; conditions: exposure time: 4 dpf
Procedure: as §1

Danio rerio embryo [17] = assay: EC20 LMR dark; higher = less potent; conditions: exposure time: 4 dpf
Procedure: as §1

Danio rerio embryo [18] = assay: EC10 LMR dark; higher = less potent; conditions: exposure time: 4 dpf
Procedure: as §1

Danio rerio embryo [19] = assay: EC20 Pigmentation decrease; higher = less potent; conditions: exposure time: 2 dpf
Procedure: as §1

Danio rerio embryo [20] = assay: EC10 Otolith-eye distance_Decrease; higher = less potent; conditions: exposure time: 4 dpf
Procedure: as §1

Danio rerio embryo [21] = assay: EC10 Any effect; higher = less potent
Procedure: as §1

Danio rerio embryo [22] = assay: EC20 Pericard size_Increase; higher = less potent
Procedure: as §1

Danio rerio embryo [23] = assay: EC10 STC bell shape; higher = less potent; conditions: exposure time: 25 h
Procedure: as §1

Danio rerio embryo [24] = assay: EC20 LMR ligth decrease; higher = less potent; conditions: exposure time: 4 dpf
Procedure: as §1

Danio rerio embryo [25] = assay: EC20 Eye-jaw distance_Decrease; higher = less potent; conditions: exposure time: 4 dpf
Procedure: as §1

Danio rerio embryo [26] = conditions: exposure time: 2 dpf
Procedure: as §1

Danio rerio embryo [27] = assay: EC50 Pericard size_Increase
Procedure: as §1

Danio rerio embryo [28] = conditions: exposure time: 4 dpf
Procedure: as §1

Danio rerio embryo [29] = assay: EC20 Body length_Decrease; higher = less potent
Procedure: as §1

O=C(O)Cc1ccccc1Nc1c(Cl)cccc1Cl [Diclofenac]
Conditions	EC10 Curvature Increase [µM]	EC10 Eye-jaw distance Decrease [µM]	EC10 LMR dark [µM]	EC10 LMR ligth decrease [µM]	EC10 Otolith-eye distance Decrease [µM]	EC10 Pigmentation decrease [µM]	EC10 STC bell shape [µM]	EC20 Curvature Increase [µM]	EC20 Eye-jaw distance Decrease [µM]	EC20 LMR dark [µM]	EC20 LMR ligth decrease [µM]	EC20 Otolith-eye distance Decrease [µM]	EC20 Pigmentation decrease [µM]	EC20 STC bell shape [µM]	EC50 Curvature Increase [µM]	EC50 Eye-jaw distance Decrease [µM]	EC50 LMR dark [µM]	EC50 Otolith-eye distance Decrease [µM]	EC50 Pigmentation decrease [µM]
Danio rerio embryo [1]	–	–	–	–	–	–	–	–	–	–	–	–	–	–	–	10.1	–	–	–
Danio rerio embryo [3]	–	–	–	–	–	–	–	–	–	–	–	–	–	37.8	–	–	–	–	–
Danio rerio embryo [4]	–	5.49	–	–	–	–	–	–	–	–	–	–	–	–	–	–	–	–	–
Danio rerio embryo [5]	–	–	–	–	–	10.9	–	–	–	–	–	–	–	–	–	–	–	–	–
Danio rerio embryo [6]	–	–	–	–	–	–	–	–	–	–	–	–	–	–	–	–	–	9.6	–
Danio rerio embryo [8]	–	–	–	–	–	–	–	–	–	–	–	–	–	–	13.2	–	–	–	–
Danio rerio embryo [9]	–	–	–	5.85	–	–	–	–	–	–	–	–	–	–	–	–	–	–	–
Danio rerio embryo [11]	11.5	–	–	–	–	–	–	–	–	–	–	–	–	–	–	–	–	–	–
Danio rerio embryo [15]	–	–	–	–	–	–	–	12.1	–	–	–	–	–	–	–	–	–	–	–
Danio rerio embryo [16]	–	–	–	–	–	–	–	–	–	–	–	6.89	–	–	–	–	–	–	–
Danio rerio embryo [17]	–	–	–	–	–	–	–	–	–	6.84	–	–	–	–	–	–	–	–	–
Danio rerio embryo [18]	–	–	6.21	–	–	–	–	–	–	–	–	–	–	–	–	–	–	–	–
Danio rerio embryo [19]	–	–	–	–	–	–	–	–	–	–	–	–	13.2	–	–	–	–	–	–
Danio rerio embryo [20]	–	–	–	–	5.67	–	–	–	–	–	–	–	–	–	–	–	–	–	–
Danio rerio embryo [23]	–	–	–	–	–	–	32.4	–	–	–	–	–	–	–	–	–	–	–	–
Danio rerio embryo [24]	–	–	–	–	–	–	–	–	–	–	6.64	–	–	–	–	–	–	–	–
Danio rerio embryo [25]	–	–	–	–	–	–	–	–	6.88	–	–	–	–	–	–	–	–	–	–
Danio rerio embryo [26]	–	–	–	–	–	–	–	–	–	–	–	–	–	–	–	–	–	–	18.8
Danio rerio embryo [28]	–	–	–	–	–	–	–	–	–	–	–	–	–	–	–	–	8.07	–	–

Conditions	EC10 Any effect [µM]	EC10 Body length Decrease [µM]	EC10 Pericard size Increase [µM]	EC20 Any effect [µM]	EC20 Body length Decrease [µM]	EC20 Pericard size Increase [µM]	EC50 Any effect [µM]	EC50 Body length Decrease [µM]	EC50 LMR ligth decrease [µM]	EC50 Pericard size Increase [µM]	EC50 STC bell shape [µM]	spontaneous tail coiling frequency
Danio rerio embryo [2], exposure time: 2 dpf	–	–	10.5	–	–	–	–	–	–	–	–	–
Danio rerio embryo [2], exposure time: 4 dpf	–	–	5.93	–	–	–	–	–	–	–	–	–
Danio rerio embryo [7], exposure time: 2 dpf	–	11.1	–	–	–	–	–	–	–	–	–	–
Danio rerio embryo [7], exposure time: 4 dpf	–	6.47	–	–	–	–	–	–	–	–	–	–
Danio rerio embryo [10], 1 µM	–	–	–	–	–	–	–	–	–	–	–	2.73
Danio rerio embryo [10], 2 µM	–	–	–	–	–	–	–	–	–	–	–	2.93
Danio rerio embryo [10], 3.123 µM	–	–	–	–	–	–	–	–	–	–	–	2.81
Danio rerio embryo [10], 4 µM	–	–	–	–	–	–	–	–	–	–	–	2.63
Danio rerio embryo [10], 5.12 µM	–	–	–	–	–	–	–	–	–	–	–	2.43
Danio rerio embryo [10], 6.25 µM	–	–	–	–	–	–	–	–	–	–	–	2.41
Danio rerio embryo [10], 6.4 µM	–	–	–	–	–	–	–	–	–	–	–	2.64
Danio rerio embryo [10], 8 µM	–	–	–	–	–	–	–	–	–	–	–	3.93
Danio rerio embryo [10], 10 µM	–	–	–	–	–	–	–	–	–	–	–	3.72
Danio rerio embryo [10], 12.5 µM	–	–	–	–	–	–	–	–	–	–	–	3.42
Danio rerio embryo [10], 15.6 µM	–	–	–	–	–	–	–	–	–	–	–	4.34
Danio rerio embryo [10], 25 µM	–	–	–	–	–	–	–	–	–	–	–	4.62
Danio rerio embryo [10], 31.25 µM	–	–	–	–	–	–	–	–	–	–	–	3.8
Danio rerio embryo [10], 50 µM	–	–	–	–	–	–	–	–	–	–	–	2.15
Danio rerio embryo [10], 62.5 µM	–	–	–	–	–	–	–	–	–	–	–	1.4
Danio rerio embryo [10], 100 µM	–	–	–	–	–	–	–	–	–	–	–	0
Danio rerio embryo [10], 150 µM	–	–	–	–	–	–	–	–	–	–	–	0
Danio rerio embryo [12], exposure time: 2 dpf	–	–	–	11.3	–	–	–	–	–	–	–	–
Danio rerio embryo [12], exposure time: 4 dpf	–	–	–	5.45	–	–	–	–	–	–	–	–
Danio rerio embryo [13], exposure time: 2 dpf	–	–	–	–	–	–	–	14.2	–	–	–	–
Danio rerio embryo [13], exposure time: 4 dpf	–	–	–	–	–	–	–	8.33	–	–	–	–
Danio rerio embryo [14], exposure time: 2 dpf	–	–	–	–	–	–	12.4	–	–	–	–	–
Danio rerio embryo [14], exposure time: 4 dpf	–	–	–	–	–	–	8.22	–	8.24	–	–	–
Danio rerio embryo [14], exposure time: 25 h	–	–	–	–	–	–	–	–	–	–	50.9	–
Danio rerio embryo [21], exposure time: 2 dpf	10.7	–	–	–	–	–	–	–	–	–	–	–
Danio rerio embryo [21], exposure time: 4 dpf	4.28	–	–	–	–	–	–	–	–	–	–	–
Danio rerio embryo [22], exposure time: 2 dpf	–	–	–	–	–	11.1	–	–	–	–	–	–
Danio rerio embryo [22], exposure time: 4 dpf	–	–	–	–	–	6.72	–	–	–	–	–	–
Danio rerio embryo [27], exposure time: 2 dpf	–	–	–	–	–	–	–	–	–	12.2	–	–
Danio rerio embryo [27], exposure time: 4 dpf	–	–	–	–	–	–	–	–	–	8.32	–	–
Danio rerio embryo [29], exposure time: 2 dpf	–	–	–	–	12.1	–	–	–	–	–	–	–
Danio rerio embryo [29], exposure time: 4 dpf	–	–	–	–	7.11	–	–	–	–	–	–	–
